Assay results taken from ChEMBL document CHEMBL5608141, “Identification of compartment-specific drug sensitivities in CRC organoid-stroma co-cultures” (2024).

Columns and labels:
Format in all cases: functional, Homo sapiens
Set-up in all cases: dose or concentration left out as unconfirmed
Colon cancer organoid [1] = test: Identification of compartment-specific drug sensitivities in O06 CRC organoid-stroma F06 CAF co-cultures. Organoid is transduced with Lucferase2-P2A-EGFP lentivirus, fibroblast with Renilla-dsRed lentivirus. Dual-Glo Luciferase assay is used to report viability data.
Colon cancer organoid [2] = test: Identification of compartment-specific drug sensitivities in O14 CRC organoid-stroma F14 CAF co-cultures. Organoid is transduced with Lucferase2-P2A-EGFP lentivirus, fibroblast with Renilla-dsRed lentivirus. Dual-Glo Luciferase assay is used to report viability data.
Colon cancer organoid [3] = test: Identification of compartment-specific drug sensitivities in O20 CRC organoid-stroma F20 CAF co-cultures. Organoid is transduced with Lucferase2-P2A-EGFP lentivirus, fibroblast with Renilla-dsRed lentivirus. Dual-Glo Luciferase assay is used to report viability data.
[4] = Transduced with Lucferase2-P2A-EGFP lentivirus
[5] = Transduced with Renilla-dsRed lentivirus

Structure (SMILES): CN[C@@H]1C[C@H]2O[C@@](C)([C@@H]1OC)n1c3ccccc3c3c4c(c5c6ccccc6n2c5c31)C(=O)NC4 [STAUROSPORINE]
- Cell Viability (Colon cancer organoid [1]; [4]): 0.2458%
- Cell Viability (Colon cancer organoid [1]; [5]): 0.5911%
- Cell Viability (Colon cancer organoid [2]; [4]): 0.5717%
- Cell Viability (Colon cancer organoid [2]; [5]): 0.4831%
- Cell Viability (Colon cancer organoid [3]; [4]): 0.3702%
- Cell Viability (Colon cancer organoid [3]; [5]): 0.5055%

Structure (SMILES): O=C(NCC(=O)N1CCCC1)Nc1ccc2cnccc2c1
- Cell Viability (Colon cancer organoid [1]; [4]): 80.3687%
- Cell Viability (Colon cancer organoid [1]; [5]): 124.064%
- Cell Viability (Colon cancer organoid [2]; [4]): 110.898%
- Cell Viability (Colon cancer organoid [2]; [5]): 98.9067%
- Cell Viability (Colon cancer organoid [3]; [4]): 121.558%
- Cell Viability (Colon cancer organoid [3]; [5]): 100.064%

Structure (SMILES): Cn1cc(-c2ccc3occ(-c4ccccc4-c4ccccc4)c3n2)cn1
- Cell Viability (Colon cancer organoid [1]; [4]): 43.2566%
- Cell Viability (Colon cancer organoid [1]; [5]): 104.957%
- Cell Viability (Colon cancer organoid [2]; [4]): 109.875%
- Cell Viability (Colon cancer organoid [2]; [5]): 78.5125%
- Cell Viability (Colon cancer organoid [3]; [4]): 88.7548%
- Cell Viability (Colon cancer organoid [3]; [5]): 89.3741%

Structure (SMILES): Cn1c(-c2csc(C3CCN(CC4=NC5N=CC=CC5N4)CC3)n2)nc2ccccc21 (stereo not drawn) [BAY-070]
- Cell Viability (Colon cancer organoid [1]; [4]): 29.934%
- Cell Viability (Colon cancer organoid [1]; [5]): 49.5381%
- Cell Viability (Colon cancer organoid [2]; [4]): 72.3778%
- Cell Viability (Colon cancer organoid [2]; [5]): 60.078%
- Cell Viability (Colon cancer organoid [3]; [4]): 42.0794%
- Cell Viability (Colon cancer organoid [3]; [5]): 84.0468%

Structure (SMILES): CCn1c(-c2nc3cc(C(=O)N4CCCC(N)C4)ccc3n2C)cc2ccccc21.Cl (stereo not drawn)
- Cell Viability (Colon cancer organoid [1]; [4]): 115.054%
- Cell Viability (Colon cancer organoid [1]; [5]): 117.733%
- Cell Viability (Colon cancer organoid [2]; [4]): 132.628%
- Cell Viability (Colon cancer organoid [2]; [5]): 112.241%
- Cell Viability (Colon cancer organoid [3]; [4]): 133.825%
- Cell Viability (Colon cancer organoid [3]; [5]): 136.72%

Structure (SMILES): CN1C(=O)c2sccc2N(C)c2nc(Nc3ccc(S(N)(=O)=O)cc3)ncc21
- Cell Viability (Colon cancer organoid [1]; [4]): 23.972%
- Cell Viability (Colon cancer organoid [1]; [5]): 57.2364%
- Cell Viability (Colon cancer organoid [2]; [4]): 48.6334%
- Cell Viability (Colon cancer organoid [2]; [5]): 48.1427%
- Cell Viability (Colon cancer organoid [3]; [4]): 35.7299%
- Cell Viability (Colon cancer organoid [3]; [5]): 84.1947%

Structure (SMILES): CN(C)[C@H]1CCN(c2cc(-c3ccccc3)nc3ccnn23)C1 [(S)-ZINC-3573]
- Cell Viability (Colon cancer organoid [1]; [4]): 87.7689%
- Cell Viability (Colon cancer organoid [1]; [5]): 121.05%
- Cell Viability (Colon cancer organoid [2]; [4]): 98.973%
- Cell Viability (Colon cancer organoid [2]; [5]): 77.8832%
- Cell Viability (Colon cancer organoid [3]; [4]): 93.0253%
- Cell Viability (Colon cancer organoid [3]; [5]): 112.128%

Structure (SMILES): CCOC(=O)Nc1cc(-c2ccc(C)c(NS(C)(=O)=O)c2)nn2c(C)nnc12
- Cell Viability (Colon cancer organoid [1]; [4]): 112.605%
- Cell Viability (Colon cancer organoid [1]; [5]): 266.102%
- Cell Viability (Colon cancer organoid [2]; [4]): 91.5211%
- Cell Viability (Colon cancer organoid [2]; [5]): 161.373%
- Cell Viability (Colon cancer organoid [3]; [4]): 38.74%
- Cell Viability (Colon cancer organoid [3]; [5]): 177.965%

Structure (SMILES): O=C1[C@H](Cc2ccc(O)cc2)N2C(=O)CCN(C(=O)NCc3ccccc3)[C@H]2CN1Cc1cccc2ccccc12
- Cell Viability (Colon cancer organoid [1]; [4]): 79.2211%
- Cell Viability (Colon cancer organoid [1]; [5]): 124.216%
- Cell Viability (Colon cancer organoid [2]; [4]): 38.6094%
- Cell Viability (Colon cancer organoid [2]; [5]): 83.3915%
- Cell Viability (Colon cancer organoid [3]; [4]): 90.1159%
- Cell Viability (Colon cancer organoid [3]; [5]): 144.616%

Structure (SMILES): CC1(C)C(N)=Nc2cc(OCCCCN3Cc4ccc(OCc5cn(CC(=O)N6CCC(CCN7CCCC7)CC6)nn5)cc4C3)c(OCC3CC3)cc21
- Cell Viability (Colon cancer organoid [1]; [4]): 65.2251%
- Cell Viability (Colon cancer organoid [1]; [5]): 114.368%
- Cell Viability (Colon cancer organoid [2]; [4]): 112.762%
- Cell Viability (Colon cancer organoid [2]; [5]): 94.6071%
- Cell Viability (Colon cancer organoid [3]; [4]): 70.7317%
- Cell Viability (Colon cancer organoid [3]; [5]): 125.652%

Structure (SMILES): Nc1ccc(C(=O)Nc2cccc(-c3nc(N4CCOCC4)c4oc5ncccc5c4n3)c2)cn1
- Cell Viability (Colon cancer organoid [1]; [4]): 78.745%
- Cell Viability (Colon cancer organoid [1]; [5]): 81.5262%
- Cell Viability (Colon cancer organoid [2]; [4]): 65.9749%
- Cell Viability (Colon cancer organoid [2]; [5]): 77.6378%
- Cell Viability (Colon cancer organoid [3]; [4]): 141.773%
- Cell Viability (Colon cancer organoid [3]; [5]): 75.1771%

Structure (SMILES): CCn1cc(-c2ccnc3[nH]c(-c4cccc(CN(C)C)c4)cc23)c(-c2ccc(NC(=O)N(C)C)cc2)n1 [GSK-1070916]
- Cell Viability (Colon cancer organoid [1]; [4]): 8.589%
- Cell Viability (Colon cancer organoid [1]; [5]): 116.692%
- Cell Viability (Colon cancer organoid [2]; [4]): 13.7383%
- Cell Viability (Colon cancer organoid [2]; [5]): 103.854%
- Cell Viability (Colon cancer organoid [3]; [4]): 9.494%
- Cell Viability (Colon cancer organoid [3]; [5]): 207.056%

Structure (SMILES): CN1CCN(c2ccc(OC(F)(F)F)c(Nc3ncc4c(n3)-c3c(c(C(N)=O)nn3CCO)CC4)c2)CC1 [ONVANSERTIB]
- Cell Viability (Colon cancer organoid [1]; [4]): 2.834%
- Cell Viability (Colon cancer organoid [1]; [5]): 160.245%
- Cell Viability (Colon cancer organoid [2]; [4]): 2.108%
- Cell Viability (Colon cancer organoid [2]; [5]): 79.1847%
- Cell Viability (Colon cancer organoid [3]; [4]): 1.999%
- Cell Viability (Colon cancer organoid [3]; [5]): 184.086%
